Reference: PubChem BioAssay (NCI)
Values joined by “and” are separate entries in the source; they are usually repeats but may differ in a detail not shown here. Equal entries are not always repeated.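 Step 1: Grow cells in 96-well plates. Step 2: Expose to compound for 48 hours at 5 concentrations. Step 3: Interpolate endpoints linearly; if unreached, use highest concentration. GI50: concentration for 50% inhibition of growth. Definition used: TGI = concentration required for complete inhibition of growth.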

Experiments:
Test in all cases: growth of human tumour cells (NCI), 48 h
[1] = test system: A549 NSCLC
[2] = test system: COLO 205 colon
[3] = test system: EKVX NSCLC
[4] = test system: OVCAR-3 ovarian
[5] = test system: OVCAR-4 ovarian
[6] = test system: OVCAR-5 ovarian
[7] = test system: SF-539 CNS
[8] = test system: SK-MEL-28 melanoma
[9] = test system: MALME-3M melanoma
[10] = test system: HOP-62 NSCLC

| SMILES | GI50 [1] | TGI [1] | GI50 [2] | TGI [2] | GI50 [3] | TGI [3] | GI50 [4] | TGI [4] | GI50 [5] | TGI [5] | GI50 [6] | TGI [6] | GI50 [7] | TGI [7] | GI50 [8] | TGI [8] | TGI [9] | TGI [10] | GI50 [9] | GI50 [10] |
| --- | --- | --- | --- | --- | --- | --- | --- | --- | --- | --- | --- | --- | --- | --- | --- | --- | --- | --- | --- | --- |
| O=C(Nc1ccccc1F)c1ccc(NC2=C(Cl)C(=O)N(Cc3ccccc3)C2=O)cc1 | 13.5 µM | 26.3 µM | 9.03 µM | 21 µM | 16.6 µM | 30.2 µM | 1.68 µM | 3.05 µM | 11.1 µM | 23.1 µM | 16.6 µM | 30.2 µM | 6.18 µM | 18 µM | 3.88 µM | 13.5 µM |  |  |  |  |
| CCc1cccc(C(C)CC)c1NC(=O)CC1C(=O)Nc2ccccc2S1=O (stereo unspecified) |  | > 100 µM |  |  |  | > 100 µM |  | > 100 µM |  | 47.9 µM |  | > 100 µM |  | 46.2 µM |  | 68.1 µM | > 100 µM |  |  |  |
| COC(=O)C(=O)C(C#N)c1ccc(Cl)c(Cl)c1 (stereo unspecified) |  | > 100 µM |  |  |  | > 100 µM |  | > 100 µM |  |  |  |  |  | > 100 µM |  | > 100 µM | > 100 µM |  |  |  |
| COc1cc2c3c(n(CCCNCCN4CCOCC4)c(=O)c2cc1OC)-c1cc2c(cc1C3=O)OCO2 | 0.182 µM and 1.37 µM | 5.42 µM | 2.01 µM and 7.31 µM | 50 µM and 45.8 µM | 8.93 µM and 7.24 µM | 18.2 µM and 18.6 µM | 0.528 µM and 0.6 µM | 1.4 µM and 3.27 µM |  | 50 µM and 12.2 µM | 0.913 µM and 2.31 µM | 1.74 µM and 5.16 µM | 1.08 µM | 3.88 µM |  |  | 14.5 µM and 27.3 µM | 0.79 µM and 1.93 µM | 6.5 µM and 8.31 µM |  |
| COc1ccc(CCC2NCCc3cc(OC)c(OC)cc32)cc1 (stereo unspecified) |  | > 100 µM |  |  |  | > 100 µM |  | > 100 µM |  | > 100 µM |  | > 100 µM |  | > 100 µM |  | > 100 µM | > 100 µM | > 100 µM |  |  |
| COc1cccc(C2C(C#N)=C(N)Oc3cc(OC)ccc32)c1 (stereo unspecified) | 0.0496 µM | > 100 µM | 0.0464 µM | 0.529 µM |  |  | 0.0244 µM | 1.18 µM | 1.96 µM | > 96.8 µM | 0.0678 µM | > 100 µM | 0.0231 µM | 0.0596 µM | 0.0577 µM | > 100 µM |  | > 76.6 µM |  | 0.0418 µM |
| CC12CCC(O)CC1CCC1C2CCC2(C)C(C3=CC(=O)OC3)CCC12 (stereo unspecified) | 21.8 µM | > 100 µM | > 100 µM | > 100 µM |  |  | > 86.6 µM | > 100 µM |  | > 73.2 µM | > 100 µM | > 100 µM | 21.9 µM | > 100 µM | 28.2 µM | > 100 µM | > 90.1 µM | 44.9 µM | 26.3 µM | 9.53 µM |
| CC1=N/C(=C\c2cccc3ccccc23)C(=O)O1 |  | > 100 µM |  | > 100 µM |  | > 100 µM |  |  |  |  |  | > 100 µM |  | > 100 µM |  | > 100 µM | > 100 µM | > 100 µM |  |  |
| CCc1nc(N)nc(N)c1-c1ccc(Cl)c(N=NN(C)C)c1 |  | 99.5 µM |  | 50.7 µM |  | > 95.2 µM |  | > 91.5 µM |  | > 46.4 µM |  | > 100 µM |  | 56.9 µM |  | > 75.5 µM |  | > 73.9 µM |  |  |
| CCCCCCCCCC(=O)N[C@H]1CCc2cc(OC)c(OC)c(OC)c2-c2ccc(SC)c(=O)cc21 |  | > 100 µM |  | 0.0123 µM |  | 9.55 µM |  | 0.0477 µM and 0.03 µM | 10.8 µM | > 100 µM |  | > 100 µM |  | 0.0491 µM |  |  |  |  |  |  |
| C=C1C(=O)O[C@H]2[C@H]1CC/C(COC(=O)C(=O)c1cn(C)c3ccc(OC)cc13)=C\CC[C@@]1(C)O[C@@H]21 | 7.61 µM | 14.2 µM |  |  | 8.19 µM | 16.3 µM | 1.86 µM | 3.42 µM | 5.2 µM | 25.5 µM | 6.12 µM | 13.6 µM | 4.96 µM | 8.94 µM | 3.14 µM | 8.49 µM | 9.91 µM | 11.9 µM | 5.62 µM | 6.46 µM |
| CS(=O)(=O)CS(=O)CS(=O)CS(=O)CC(NC(=O)CCC(N)C(=O)O)C(=O)O (stereo unspecified) |  | > 100 µM |  | > 100 µM |  | > 100 µM |  | > 100 µM |  | > 100 µM |  | > 100 µM |  | > 100 µM |  | > 100 µM |  | > 100 µM |  |  |
| Nc1nc(Nc2ccc3c(c2)CCC(N2CCCC2)CC3)nn1-c1cc2c(nn1)-c1ccccc1CCC2 (stereo unspecified) | 1.32 µM | 2.92 µM | 1.56 µM | 3.11 µM |  |  | 1.4 µM | 2.93 µM | 1.15 µM | 2.56 µM | 1.39 µM | 2.76 µM | 0.787 µM | 2.1 µM | 1.61 µM | 3.01 µM | 3.09 µM | 3.11 µM | 1.42 µM | 1.5 µM |
| CN(C)CCNC(=O)c1cccc2c1nc(-c1ccccn1)c1ccccc12 |  | 27.9 µM |  | 24.8 µM |  | 65.2 µM |  | 38.6 µM |  | 42.2 µM |  | 38.1 µM |  | 30.4 µM |  | 29.9 µM |  | 36.2 µM |  |  |
| C=C1C(=O)O[C@H]2[C@H]1CC(=O)/C(C)=C\CC[C@@]1(C)O[C@@H]21 | 5.21 µg/mL | 11.3 µg/mL | 0.755 µg/mL | 3.54 µg/mL | 4 µg/mL | 8.03 µg/mL | 0.795 µg/mL | 3.71 µg/mL | 3.75 µg/mL | 8.12 µg/mL | 4.16 µg/mL | 8.24 µg/mL | 2.64 µg/mL | 7.16 µg/mL | 1.51 µg/mL | 6.11 µg/mL |  | 8.45 µg/mL |  | 4.31 µg/mL |
| CC(C)(C)C(=O)OCC(COC(=O)C(C)(C)C)[N+](=O)[O-] |  | > 100 µM |  | > 100 µM |  | > 100 µM |  | > 100 µM |  | > 100 µM |  | > 100 µM |  | > 100 µM |  | > 100 µM | > 100 µM |  |  |  |
| O=[N+]([O-])c1ccc(O)c2ncccc12 |  | > 100 µM and 12.9 µM |  | > 100 µM and 10.7 µM |  | > 100 µM and 17.9 µM |  |  |  |  |  | > 100 µM and 40.5 µM |  | > 100 µM and 20.8 µM |  | > 100 µM and 24.7 µM | 17.4 µM |  | 3.55 µM |  |
| N#Cc1ccc2oc3ccc(C#N)cc3c(=O)c2c1 |  | 57 µM |  | > 100 µM |  |  |  |  |  | 38.3 µM |  | 34.5 µM |  | 43.6 µM |  | 36.7 µM | 50.8 µM |  |  |  |
| COc1ccc(Cn2cc(Cn3c(=O)c(-c4nc5ccccc5[nH]4)cc4ccccc43)nn2)c(OC)c1OC | 0.213 µM and 0.477 µM |  |  |  | 0.904 µM and 0.605 µM | 50 µM and > 100 µM | 0.165 µM and 0.292 µM | 0.633 µM and 1.19 µM | 1.31 µM | > 100 µM | 0.201 µM and 0.329 µM | 1.23 µM and 1.53 µM | 0.144 µM and 0.206 µM | 0.664 µM and 0.872 µM | 0.539 µM and 0.912 µM | 1.66 µM and 4.61 µM | 0.985 µM and 2.8 µM | 0.938 µM and 3.87 µM | 0.139 µM and 0.42 µM | 0.179 µM and 0.525 µM |
